Assay results as given in patent publication US20120270851A1, “USE OF […] THE TREATMENT OR PREVENTION OF MALARIA” (SANOFI, priority 2009, published 2012).
Like-named read-outs stand apart in the source and are kept apart here.

Key:
[1] = tested on: P. vivax; settings: read-out: EC50 (effective concentration 50); blood isolates of P. vivax from patients, north-west Thailand; FIG. 1
Protocol: (§1) In Vitro Evaluation of the Efficacy of Ferroquine Versus Other Reference Antimalaria Agents, on Blood Isolates Infected with P. vivax
(§2) The test that follows is performed on 110 isolates of P. vivax, collected in the north-west of Thailand (Tak province) on consenting patients, infected with P. vivax and in the acute phase of the infection, who came for consultation at the Shoklo Malaria Research Unit (SMRU).
(§3) The samples are collected 5 hours after their arrival and placed in 5 ml heparinized tubes, at room temperature.
(§4) The platelets and leukocytes are removed from these isolates, by analogy with the method described in Kanlaya et al., Malaria Journal, 2009, 8:115.

[2] = tested on: P. vivax; settings: FIG. 2
Protocol: as §1, §2, §3, §4
Russell, B. et al. 2008, Antimicrob. Agents Chemother. 52:1040-5.

**Q.** With ferroquine as the substance, how does the EC50 [1] read?
**A.** The EC50 was roughly 6 nM.

**Q.** And the IC50 ([2]; read-out: IC50 (inhibitory concentration 50), mature trophozoite stage, mature trophozoite stage of P. vivax)?
**A.** Its IC50 is 21 nM.

**Q.** What about the IC50 ([2]; read-out: IC50 (inhibitory concentration 50), ring stage, young immature trophozoites (ring stage) of P. vivax) of the same substance?
**A.** The IC50 was 14 nM.
